Where “and” joins values, the source holds several entries; their conditions need not be identical. Equal values may be shown once. Read-outs that look alike come from different tables or passages of the source. Where a SMILES comes first, the peptide text is derived from it. [ ]: non-standard residue; d: D form. The star is where a group is joined. Dolaproine = CO[C@@H]([C@@H]1CCCN1)[C@@H](C)C(=O)O; Dil = CC[C@H](C)[C@H](NC)[C@@H](CC(=O)O)OC; X1 = C[C@@H](N*)[C@@H](O)c1ccccc1; NMeV = CN[C@H](C(=O)O)C(C)C
What was measured:
HeLa cells = assay: In vitro cell viability (Cell Titre Glo, 96 h), HeLa; assay type: cell-based; conditions: ALPP/ALPPL2 negative cell-line, Table 24
Description: HeLa cells, CCL-2 provided by the American Type Culture Collection (ATCC). Grown in EMEM+10% FCS
(§1) In vitro cell viability assays for cancer cells treated with anti ALPP/ALPPL2 drug conjugates Cells were seeded in the appropriate complete growth media, as described above, into white, clear bottom 96 well plates (Costar) and incubated at 37° C., 5% C02 for 24 hours. On the following day, dilution series were set up for each test agent at ×10 working stocks. The dose response X10 stock was e.g.: 10000, 5000, 1000, 500, 100, 50, 10, 5, 1, 0.5 nM etc. 10 μL of the X10 stock solutions were added to the cell plates (90 μl per well) using a multichannel pipette. […] 10 μl of vehicle control (PBS) was added to the control wells (columns 11 and 12). Plates were incubated at 37° C., 5% CO2 for 96 hours. Promega Cell Titre Glo reagent was used as per the manufacturer's instructions to assess cell viability. […] Plates were allowed to sit for a further 10 minutes at room temperature prior to measuring luminescence read-out using a Clariostar plate-reader (BMG). Data was analysed by calculating the average for untreated (vehicle only) control wells and determining the % of control for each treated well. % of control data was then plotted against Log [Treatment] concentration and the IC50 value derived using non-linear regression fitting in GraphPad Prism software. […]

CHO-ALPPL2 cells = assay: In vitro cell viability (Cell Titre Glo, 96 h), CHO-ALPPL2; assay type: cell-based; conditions: cell-killing
Description: (§2) CHO-ALPP isoform stable transfectants were generated using CHO-K1 cells (CCL-61) provided by the American Type Culture Collection (ATCC). Grown in ATCC-formulated F-12K medium+10% FCS.
(§3) In vitro cell viability assays for cancer cells treated with anti ALPP/ALPPL2 drug conjugates Cells were seeded in the appropriate complete growth media, as described above, into white, clear bottom 96 well plates (Costar) and incubated at 37° C., 5% C02 for 24 hours. On the following day, dilution series were set up for each test agent at ×10 working stocks. The dose response X10 stock was e.g.: 10000, 5000, 1000, 500, 100, 50, 10, 5, 1, 0.5 nM etc. […] Plates were allowed to sit for a further 10 minutes at room temperature prior to measuring luminescence read-out using a Clariostar plate-reader (BMG). Data was analysed by calculating the average for untreated (vehicle only) control wells and determining the % of control for each treated well. % of control data was then plotted against Log [Treatment] concentration and the IC50 value derived using non-linear regression fitting in GraphPad Prism software. […]
(§4) Cell Titre Glo assays were performed as described in Example 5. Cells were incubated with VHH-hFc-drug conjugates and h12F3 drug conjugates at 37° C., 5% CO2 for 96 hours and the % of cell viability determined as a function of dose response. […]

MKN1 cells = assay: In vitro cell viability (Cell Titre Glo, 96 h), MKN1; assay type: cell-based; conditions: Table 24
Description: MKN1 cells (RCB1003, Riken BRC). Ref: Cancer Sci 2006; 97:387-394, were provided by the RIKEN BRC through the National BioResource Project of the MEXT, Japan Grown in RPMI1640+10% FCS.
as §3
(§5) Cell Titre Glo assays were performed as described in Example 5. Cells were incubated with biparatopic VHH-hFc-drug conjugates and h12F3 drug conjugate at 37° C., 5% CO2 for 96 hours and the % of cell viability determined as a function of dose response. […]

CHO-ALPP cells = assay: In vitro cell viability (Cell Titre Glo, 96 h), CHO-ALPP; assay type: cell-based; conditions: cell-killing
Description: as §2, §3, §4

CHO-ALPL cells = assay: In vitro cell viability (Cell Titre Glo, 96 h), CHO-ALPL; assay type: cell-based; conditions: cell-killing
Description: as §2
as §1, with “hours.” for “hours. Promega Cell Titre Glo reagent was used as per the manufacturer's instructions to assess cell viability.”

NCI-N87 cells = assay: In vitro cell viability (Cell Titre Glo, 96 h), NCI-N87; assay type: cell-based, human; conditions: Table 24
Description: NCI-N87 cells, CRL-5822 provided by the American Type Culture Collection (ATCC). Grown in RPM11640+10% FCS.
as §3, with “etc. 10 μL of the X10 stock solutions were added to the cell plates (90 μl per well) using a multichannel pipette.” for “etc.”
as §5

CHO-ALPI cells = assay: In vitro cell viability (Cell Titre Glo, 96 h), CHO-ALPI; assay type: cell-based; conditions: cell-killing
Description: as §2
as §1, with “hours.” for “hours. Promega Cell Titre Glo reagent was used as per the manufacturer's instructions to assess cell viability.”

NCI-H1651 cells = assay: In vitro cell viability (Cell Titre Glo, 96 h), NCI-H1651; assay type: cell-based; conditions: Table 24
Description: NCI-H1651 cells, CRL-5884 provided by the American Type Culture Collection (ATCC). Grown in ATCC DMEM:F12 medium+10% FCS plus supplements required to make ACL-4 media as recommended by ATCC.
as §3, §4

In the case of `CC[C@H](C)[C@@H]([C@@H](CC(=O)N1CCC[C@H]1[C@H](OC)[C@@H](C)C(=O)N[C@H](C)[C@@H](O)c1ccccc1)OC)N(C)C(=O)[C@@H](NC(=O)[C@@H](NC)C(C)C)C(C)C` [MMAE, monomethylauristatin E] (H-[NMeV]V[Dil][Dolaproine]-X1), the “% viability remaining, HeLa” value (HeLa cells) is reported as 5.1%, the IC50 (HeLa cells; cell-killing) is reported as 1.8 nM and the IC50 (CHO-ALPPL2 cells; Table 18, read-out: IC50 @ 96 h, CHO-ALPPL2) is reported as 24.4 nM and 16.6 nM. The IC50 (CHO-ALPPL2 cells; Table 23, read-out: IC50 at 96 h, CHO-ALPPL2) was 24.4 nM and 15.6 nM, the “% viability remaining, MKN1” value (MKN1 cells) was 23.1% and the IC50 (MKN1 cells; cell-killing) was 1.4 nM. The IC50 (CHO-ALPP cells; Table 18, read-out: IC50 @ 96 h, CHO-ALPP) was 19.1 nM and 19.5 nM, the IC50 (CHO-ALPP cells; Table 23, read-out: IC50 at 96 h, CHO-ALPP) was 19.1 nM and 19.5 nM and the IC50 (CHO-ALPL cells; Table 18, read-out: IC50 @ 96 h, CHO-ALPL) was 29.4 nM and 25.8 nM. The IC50 (CHO-ALPL cells; Table 23, read-out: IC50 at 96 h, CHO-ALPL) was 29.4 nM and 25.8 nM, the “% viability remaining, NCI-N87” value (NCI-N87 cells) was 27.9% and the IC50 (NCI-N87 cells; cell-killing) was 0.3 nM. For the same molecule, the IC50 (CHO-ALPI cells; Table 18, read-out: IC50 @ 96 h, CHO-ALPI) was 11.4 nM and 15.9 nM, the IC50 (CHO-ALPI cells; Table 23, read-out: IC50 at 96 h, CHO-ALPI) was 11.4 nM and 15.9 nM and the “% viability remaining, NCI-H1651” value (NCI-H1651 cells) was 28.1%. It also gave an IC50 (NCI-H1651 cells; cell-killing) of 0.8 nM.

Source: patent US20260216242A1, “ALPP-SPECIFIC VARIANT ANTIGEN BINDING MOLECULES” (ALMAC DISCOVERY LIMITED, priority 2022, published 2026)
